Consider 89 compounds from a melting point compilation (Tetko et al.; mined from patent text by program, amines drawn as free bases though some values may be those of a salt).

Structures are written as SMILES.

`CC(C)c1nc(CN(C)C(=O)NC(C(=O)NC(Cc2ccccc2)CC(O)C(Cc2ccccc2)NC(=O)OCc2cncs2)C(C)C)cs1` (centres undefined): the melting point – broadly, the temperature of the solid-liquid transition – lay within 122 to 123 °C. `COc1ccc(-c2c(Cl)c(CNC(=O)Cn3cncn3)nc3sc4c(c23)CCN(Cc2ccccc2)C4)cc1OC` yielded a melting point of 101 to 102 °C. Turning to `O=C(Nc1cc(CO)cc(Nc2c3ccccc3nc3ccccc23)c1)Oc1ccc(N(CCCl)CCCl)cc1`, the melting point lay in the range of 241 to 242 °C. `Cc1ccccc1Oc1cccc2c1OC(=O)C2` returned a melting point of 110 to 111 °C. Take `N#CC1=C(Nc2cc(C(F)(F)F)ccc2N)CSC1`: the melting point came to 189 °C. Consider `CCOC(=O)[C@@H]1C[C@H](C(=O)O)Nc2cc(Cl)cc(Cl)c21` (relative stereo), for which the melting point lay within 160 to 162 °C. Consider `CC1(C)Oc2ccc(C#N)cc2[C@@H](NC(=O)Nc2cccc(-c3cnc[nH]3)c2)[C@@H]1O`, for which the melting point fell in the range of 170 to 180 °C.

`Cc1nn(-c2cc(Oc3ccc(O)cc3)c(Cl)cc2F)c(=O)n1C(F)F` came in with a melting point of 162 °C. `OCc1cc2ccccc2nc1I` displayed a melting point of 189 to 190 °C. As to `COc1cc(Cl)c2c(=O)c(-c3ccccc3C)coc2c1`, the melting point was 159 to 160 °C. In the case of `CC(=O)C(=NO)c1ccc(OC[Si](C)(C)c2ccc(F)cc2)cc1` it was 115 to 117 °C.

Turning to `CN(Cc1ccco1)Cn1c(Cl)c(C#N)c(-c2cccc(Cl)c2F)c1-c1ccccc1`, the melting point was 63 to 64 °C. `Cc1cc(C#N)cc(C)c1OCCCC1=NNC(=O)CC1` showed a melting point of 124 °C. Regarding `N#CN1CCNC(c2ccccc2)c2ccccc2C1` (centres undefined), the melting point lay in the range of 134 to 135 °C.

`CCOC(=O)c1c(-c2ccccc2Cl)c2cc(C(C)C)ccc2[nH]c1=O` returned a melting point of 173 to 174 °C.

`CCOC(=O)CCNC(=O)Nc1ccncc1` yielded a melting point of 95 °C. To `O=C(Nc1ccc2[nH]c(CNCC3CCOCC3)cc2c1)c1ccc(OCC2CC2)cc1` belongs 160 °C.

Consider `N#Cc1cnn(CCCl)c1N`, for which the melting point turned out to be 156 °C. In the case of `Cc1cc(Nc2ccc(C(=O)O)cc2)c2[nH]ncc2n1` it was 238 to 241 °C; in that of `COc1cc(C=O)ccc1OCCCCCCO`, 55 to 56 °C; in that of `CCOc1nn(Cc2ccc(OCc3nc(-c4ccccc4)oc3C)cn2)cc1CCC(=O)O`, 133 to 134 °C. `CCN(CC)CCOc1ccc2c(=O)c3ccc(OCCN(CC)CC)cc3oc2c1` came in with a melting point of 70.5 to 72 °C. `[N-]=[N+]=Nc1ccc(CBr)cc1Cl` gave a melting point of 75 to 77 °C.

In turn, `COC(=O)Cc1ccc(OCCNC(=O)C2Cc3ccccc3N2S(=O)(=O)c2ccc(-c3cc(C(F)(F)F)ccc3Cl)cc2)c(Cl)c1` (centres undefined) came in with a melting point of 68 to 76 °C. As for `CCOC(=O)CCCCCCCC1CC2=C(C1)C(=O)C(OC)=C(OC)C2=O`, the melting point was in the range of 39 to 40 °C. Take `CCOC(=O)c1ccc(/C=C(\C)c2cc(OC)c3c(c2)C(C)(C)CC3(C)C)cc1`: the melting point fell in the range of 72 to 73 °C. Compound `COc1cccc2c1sc1[nH]c(=O)c(=O)[nH]c12` registered a melting point of over 300 °C. `CCOC(=O)c1ncn2c1CN=C(c1ccccc1F)c1cc(C#C[Si](C)(C)C)ccc1-2` had a melting point of 196 to 198 °C. As for `CC(=O)c1cc2c(cc1O)CCCC2`, the melting point lay within 70 to 72 °C. For the compound `Cc1ccc(C(=O)C2(O)CCCCC2)cc1C`, the melting point was 103 to 104 °C.

On to `CS(=O)(=O)c1ccc(-c2[nH]c3ccccc3c2-c2ccc(F)cc2)cc1`, for which the melting point lay within 224 to 226 °C. With `COc1cc(-c2nc(NC(=O)c3cc4cc(C)ccc4n3CC(=O)O)sc2CCC2CCCCC2)c(OC)cc1Cl`, the melting point lay in the range of 204 to 208 °C. Compound `Cc1ccc([N+](=O)[O-])c(OCCOc2cc(C(=O)OC(C)(C)C)ccc2[N+](=O)[O-])c1` displayed a melting point of 113 to 114 °C. `COC(=O)c1ccc(C(O)C#Cc2ccccc2)cc1` (centres undefined) showed a melting point of 48 to 50 °C.

Consider `COC(=O)c1ccnc(NC(=O)C(C)CSC(C)=O)c1` (centres undefined), for which the melting point lay in the range of 105 to 106 °C. To `CC1(C)CC(=O)Nc2cc3nc(-c4ccncc4)[nH]c3cc21` belongs 201 to 202 °C. In the case of `Cn1c(=O)cc(-c2ccccc2)c2cc(C(c3ccc(Cl)cc3)n3ccnc3)ccc21` (centres undefined), the melting point was 155 °C.

In turn, `CCCCCCCCCCCCSCCOc1ccc(CCC(=O)OC)cc1` yielded a melting point of 48 °C.

`Cc1ccc(S(=O)(=O)NC(=O)OCCc2ccc(-n3c(CCCc4ccncc4)nc4cc(C(F)(F)F)c(Cl)cc43)cc2)cc1` registered a melting point of 80 to 87 °C. In the case of `CCOC(=O)C=Cc1ccc(Cl)cc1NS(=O)(=O)c1ccc(C)cc1` it was 124 to 127 °C; in that of `O=C1NC(=O)c2c1cc1ccc3c(c1c2-c1ccc(C(F)(F)F)cc1)OCO3`, 304 to 306 °C. Turning to `CN(C)c1cc(C(O)CNC(C)(C)C)ccc1O` (centres undefined), the melting point was 108 to 110 °C. To `CC(NC(=C(C#N)S(=O)(=O)c1ccc(Cl)cc1)N(C)c1cc(C(F)(F)F)cc(C(F)(F)F)c1)C(C)(C)C` (centres undefined) belongs 152 to 154 °C; to `COc1cc(CSC2=NCCS2)nc(N)n1`, 122 to 124 °C.

Compound `O=C(CS(=O)c1cccs1)C12CC3CC(CC(C3)C1)C2` (centres undefined) had a melting point of 114 to 116 °C. The compound `CCC(O)(c1ccc(O)cc1O)c1ccccc1C(F)(F)F` (centres undefined) displayed a melting point of 143 to 144 °C. The compound `CN1CCN(c2cccc3ccc(Nc4ccc([N+](=O)[O-])cc4[N+](=O)[O-])cc23)CC1` returned a melting point of 153 to 154 °C. In the case of `CCNC(=O)Nc1c(C(O)(C(F)(F)F)C(F)(F)F)ccc2c1CCC2` it was 142 to 143 °C; in that of `CN(C)C=C(C=CC#N)c1ccccc1`, 77 to 83 °C; in that of `COCCNC(=O)c1ccc(C(=O)C=C(c2cc(Cl)cc(Cl)c2)C(F)(F)F)cc1`, 150 to 153 °C. Compound `CCc1ccc(-c2ccccc2)cc1O` displayed a melting point of 62 to 65 °C. Compound `O=C1CCC(C(=O)O)C1` (centres undefined) returned a melting point of 59 to 60.5 °C. In the case of `Nc1ccc(C2=CCOCC2)c(F)c1`, the melting point is 86 to 88 °C. The compound `CCOC(=O)OC1=C(c2c(C)cc(C)cc2C)C(=O)N(N(C)C)C12CCN(N(C)C)CC2` returned a melting point of 105 °C. For the compound `CCCc1cc(-c2nc(-c3ccc(C)cc3)cs2)ccn1`, the melting point was in the range of 190 to 193 °C. To `COc1cc(C(O)CS(C)(=O)=O)cc(OC)c1N(C)C` (centres undefined) belongs 147 to 148 °C; to `Cc1ccccc1Nc1nc2ccc(CC(=O)O)cc2o1`, 199 to 200 °C. To `CCOC(=O)c1c(-c2ccccc2C)c2cc(Cl)ccc2n(C)c1=O` belongs 113 to 114 °C; to `COc1ccc(OC)c(NC(=O)C2OC(=O)c3ccccc3C2c2ccc(F)cc2)c1` (centres undefined), 133 to 136 °C; to `Cc1cc([C@@H](O)[C@@H](C)N2CCC(O)(c3ccc(F)cc3)CC2)ccc1O[Si](C(C)C)(C(C)C)C(C)C` (relative stereo), 188 to 189 °C. For the compound `CC(NC(=O)c1ccc(I)cc1)C(O)c1ccccc1` (centres undefined), the melting point lay in the range of 209 to 210 °C. `CC(=O)Nc1cccc(-c2csc(NC(N)=S)n2)c1C`: the melting point is 228 to 230 °C. To `COC(=O)c1ccc(S(=O)Cc2cccc(Cl)c2)cn1` (centres undefined) belongs 75 to 77 °C; to `Cc1ccc(CS(=O)c2c(O)cc(C)oc2=O)cc1` (centres undefined), 156 to 158 °C. Turning to `CN1C(=O)C2(COc3cc4c(cc32)OCCO4)c2c1cccc2-n1ccccc1=O` (centres undefined), the melting point is 212 to 214 °C. To `O=Cc1cc2ccc3ccsc3c2c2ccccc12` belongs 173 to 177 °C. In turn, `CN(C1CCS(=O)(=O)CC1)S(=O)(=O)c1ccc(Nc2ccnc(Nc3ccc(F)cc3)n2)cc1` yielded a melting point of 252 °C. To `CC1(C)OC(=O)Nc2ccc(-c3ccc(F)c(Cl)c3)cc21` belongs 211 to 212 °C; to `CCCCCCCCC(O)CNCCCNCC(O)CCCCCCCC` (centres undefined), 104 to 108 °C.

Compound `FC(F)(F)c1ccc2c(C3CCNCC3)c[nH]c2c1` displayed a melting point of 210 to 214 °C. `COC(=O)c1ccc(CNc2ccc3c(c2)C(C)(C)CCC3(C)C)cc1` showed a melting point of 104 to 107 °C. With `N#CCCN1CCN(C(c2ccccc2)c2ccccn2)CC1` (centres undefined), the melting point is 114 to 116 °C. Compound `O=c1ccc2c(-c3ccccc3)cc(N3CCN(Cc4ccccc4)CC3)n2cc1` showed a melting point of 157 °C.

Compound `O=C1C2=C(CCCC2)C(=O)N1c1cc([N+](=O)[O-])ccc1F` gave a melting point of 154 to 156 °C.

`CCOCCOc1ccc(-c2nc(-c3ccc(OC)cc3)nc(-c3ccc(OCCOCC)cc3O)n2)c(O)c1` displayed a melting point of 155 to 158 °C. To `COc1ccccc1NC(=O)Nc1nc(Oc2ccc3ccccc3c2)nc(N2Cc3ccccc3CC2C(=O)O)n1` (centres undefined) belongs 230 to 235 °C; to `Cc1csc2c1c(-c1ccccc1Cl)nc(=O)n2C`, 268 °C. `CC(C)CC(S)C(=O)NC(Cc1ccc(Br)nc1)C(=O)NC(Cc1ccc(-c2cccs2)nc1)C(=O)O` (centres undefined) registered a melting point of 194 to 195 °C. On to `CCCCCCCCCCCCCCOc1ccc(CC(=O)OC)cc1Cl`, for which the melting point fell in the range of 24 to 25 °C.

In turn, `Clc1cnc2cnc(Cl)nc2c1` showed a melting point of 177 to 178 °C.

In turn, `CC12CCC(=O)C=C1CCC(=Cc1cccs1)C2=O` (centres undefined) showed a melting point of 107 °C. In turn, `Cc1cc(SCc2ccccc2)ccn1` gave a melting point of 69 to 70 °C. `O=C(CCl)NC(=O)Nc1cc(C(F)(F)F)cc(C(F)(F)F)c1` registered a melting point of 170 °C. Compound `CCc1cn(C2CCC(CNC(=O)Cc3c(Cl)cccc3Cl)O2)c(=O)[nH]c1=O` (centres undefined) had a melting point of 237 to 238 °C. With `CCOC(=O)c1cn2cnc3ccccc3c2c1C(=O)OCC`, the melting point lay within 125 to 126 °C. Turning to `CC(C)Cn1cccc1C(N)=S`, the melting point fell in the range of 126 to 128 °C. To `CCOC(=O)C(C#N)=C1CCN(c2ccc(N3C[C@H](CNC(C)=O)OC3=O)cc2F)CC1` belongs 165 to 169 °C; to `C#CCOC(=O)Oc1ccc(C(=O)c2ccc(OC(=O)OCC#C)cc2)cc1`, 104 to 106 °C. As to `CC(=O)N1CCC(C(=O)c2ccc(Br)cc2)CC1`, the melting point is 120 °C.
